Measured values from publication PMC5701137, “Discovery of novel choline acetyltransferase inhibitors using structure-based virtual screening” (Scientific Reports, 2017).
Values joined by “and” are separate entries in the source; they are usually repeats but may differ in a detail not shown here. Identical values can stand only once.

Key:
[1] = biological target: T1, recombinant human AChE (Homo sapiens, UniProt P22303); assay: Modified Ellman's colorimetric assay for AChE and kinetic studies; type: biochemical; settings: for inhibition at 200 µM: read-out: AChE % IR (inhibition rate); for Ki / IC50: mean of two experiments; for IC50: substrate ATC 0.5 mM
T1 construct: purchased Sigma C1682
T1 sequence (P22303 32-614): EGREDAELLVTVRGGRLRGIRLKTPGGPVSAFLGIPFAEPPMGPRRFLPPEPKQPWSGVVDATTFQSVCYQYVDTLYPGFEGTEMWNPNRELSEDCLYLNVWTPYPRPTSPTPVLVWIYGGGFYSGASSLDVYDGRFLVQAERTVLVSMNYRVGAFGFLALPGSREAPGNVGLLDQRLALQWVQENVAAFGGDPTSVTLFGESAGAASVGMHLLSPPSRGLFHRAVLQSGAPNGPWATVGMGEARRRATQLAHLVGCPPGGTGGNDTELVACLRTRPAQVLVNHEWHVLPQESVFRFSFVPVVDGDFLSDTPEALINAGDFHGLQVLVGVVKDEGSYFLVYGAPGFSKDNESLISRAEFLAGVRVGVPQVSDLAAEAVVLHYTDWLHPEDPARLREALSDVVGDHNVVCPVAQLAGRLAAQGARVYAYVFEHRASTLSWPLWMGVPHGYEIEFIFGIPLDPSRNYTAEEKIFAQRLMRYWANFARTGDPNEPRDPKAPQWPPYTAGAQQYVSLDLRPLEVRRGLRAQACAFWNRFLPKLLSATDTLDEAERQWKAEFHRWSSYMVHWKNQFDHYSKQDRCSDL
Excerpt: (§1) A modified version of Ellman’s colorimetric assay[16],[17] was adapted to a high throughput assay for the enzymatic activity of BuChE and AChE. The reagent, butyrylthiocholine iodide (BTC), acetylthiocholine iodide (ATC), 5,5′-dithiobis (2-nitrobenzoic acid) (DTNB) were purchased from Sigma-Aldrich (St. Louis, MO, USA). The modified assay details are as previously described[34],[35]. The main modification concerned with the high throughput adaptation of the assay for use in 384-well plates. Briefly, 25 μL/well of a 1:450 diluted solution of a pooled human plasma and 1:768 diluted (3.5 ng/ml final concentration) purified recombinant human AChE protein (Sigma, Cat no. C1682) was used for measurement of BuChE and AChE activity, respectively. In the initial in vitro screening step, the wells were pre-incubated with 25 μL/wells of different Asinex compounds for 10–30 minutes at room temperature. The concentration of the compounds working solution was 3X to give a final concentration of 200 μM in a final volume of 75 μL in each well. The stock concentration of the compounds were prepared in 100% DMSO. The stock concentration was chosen usually at 10 mM, allowing the final DMSO concentration in the wells to be less than 4%. Finally, 25 μL of a cocktail mix prepared in Na/K phosphate buffer, containing DTNB (final concentration 0.4 mM) and BTC, (final concentration 1 mM) or ATC (final concentration 0.5 mM) was added to each well and the changes in absorbance was monitored at 412 nm wavelength for 15–20 minutes with one-minute interval, using a microplate spectrophotometer reader (Infinite M1000, Tecan). The rate of the enzyme activity was determined from the linear part of the kinetic reaction curves as ∆OD/time.
(§2) For kinetic studies, a similar protocol as inhibition assay was followed; a dilution series of five different concentrations ranging from 10^−6 to 10^−9 M were prepared for each selected Asinex compounds. For ChAT, the A-CoA was kept constant at 10 μM (final) but the concentration of choline chloride varied between 320–10 μM. For BuChE, BTC was used as the substrate in the concentrations ranging from 0.0625 to 2 mM. For AChE, ATC was used as the substrate in the concentrations ranging from 0.0312 to 1 mM. Each compound concentration was measured in duplicates. The rate of enzyme activity (as ∆OD/hr kinetic data) was calculated and processed using the GraphPad Prism 7 analysis software. The inhibitory constant (Ki) values were determined from the dose-response curve and the half-maximal inhibitory concentration (IC50) values were calculated by plotting the percentage enzyme activity vs. the log of the Asinex compound concentrations and fitting the data using the nonlinear regression Enzyme Kinetics-Inhibition function.

[2] = system: HEK 293 cells; assay: MTT cell viability assay; type: cell-based; settings: overnight, control cells 100%, mean ± SD of 3 readings
Procedure: Finally, to assess the prospective of the identified compounds for further development into ChAT ligands, we assessed the compounds active against ChAT, AChE and BuChE, for their cellular toxicity on human embryonic kidney (HEK 293) cells using the cell viability 3-(4,5-dimethylthiazol-2-yl)-2,5-diphenyltetrazolium bromide (MTT) assay. All compounds were evaluated at 10 and 50 µM concentrations. The cell viability data is given in Table 4 (also represented as a bar chart in Fig. 9).
The in vitro cellular toxicity of the active compounds was evaluated using MTT assay. Briefly, Human embryonic kidney epithelial (HEK-293) cells cultured at 37 °C in a humidified environment with 5% CO2 in Dulbecco’s Modified Eagle’s medium (DMEM) in 96 well plate to obtain 70–80% confluency. Further, the cells were incubated overnight at 37 °C with 10 µM and 50 µM compounds in triplicate. Cells treated with 1% DMSO were used as controls. At the end of the treatment (12 h), 10 μL of 12 mM MTT dissolved in Phosphate buffer saline pH 7.4, was added to each well and incubated for an additional 2 h at 37 °C. The media was then removed from the plate and 100 µL of DMSO was added to dissolve the violet formazan crystals. Finally, the absorbance was measured at 540 nm with a reference wavelength of 630 nm on Tecan spectrophotometer with shaking before the reading. The percentage viability was calculated taking 1% DMSO control as 100 percent and presented as mean ± SD.

[3] = biological target: T2, plasma BuChE (Homo sapiens, UniProt P06276); assay: Modified Ellman's colorimetric assay for BuChE (pooled human plasma) and kinetic studies; type: biochemical; settings: for inhibition at 200 µM: read-out: BuChE % IR (inhibition rate)
T2 construct: 1:450 diluted solution of a pooled human plasma; from tissue; host or cells: pooled human plasma
T2 sequence (P06276 29-602): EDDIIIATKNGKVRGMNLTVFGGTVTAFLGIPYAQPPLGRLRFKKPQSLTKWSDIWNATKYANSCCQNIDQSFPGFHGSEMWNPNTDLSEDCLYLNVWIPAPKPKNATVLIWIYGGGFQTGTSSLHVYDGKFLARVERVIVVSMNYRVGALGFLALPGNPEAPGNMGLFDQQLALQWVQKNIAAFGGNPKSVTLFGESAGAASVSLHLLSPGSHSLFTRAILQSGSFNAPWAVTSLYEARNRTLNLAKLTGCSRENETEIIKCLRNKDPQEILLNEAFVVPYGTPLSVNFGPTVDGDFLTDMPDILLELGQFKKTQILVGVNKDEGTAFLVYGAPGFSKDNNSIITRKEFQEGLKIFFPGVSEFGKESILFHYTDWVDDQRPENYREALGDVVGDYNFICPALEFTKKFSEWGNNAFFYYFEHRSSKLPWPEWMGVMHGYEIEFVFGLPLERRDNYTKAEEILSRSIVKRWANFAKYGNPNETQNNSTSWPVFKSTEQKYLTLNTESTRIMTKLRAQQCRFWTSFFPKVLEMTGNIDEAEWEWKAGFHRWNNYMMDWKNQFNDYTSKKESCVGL
Excerpt: as §1, §2

[4] = biological target: T3, human rChAT (Homo sapiens, UniProt P28329); assay: In vitro ChAT activity inhibition fluorometric assay and kinetic studies; type: biochemical; settings: for inhibition at 100 µM: read-out: ChAT % IR (inhibition rate)
T3 construct: made in house; host or cells: E. coli BL21 Rosetta2
T3 sequence (P28329 1-630 isoform P28329-3): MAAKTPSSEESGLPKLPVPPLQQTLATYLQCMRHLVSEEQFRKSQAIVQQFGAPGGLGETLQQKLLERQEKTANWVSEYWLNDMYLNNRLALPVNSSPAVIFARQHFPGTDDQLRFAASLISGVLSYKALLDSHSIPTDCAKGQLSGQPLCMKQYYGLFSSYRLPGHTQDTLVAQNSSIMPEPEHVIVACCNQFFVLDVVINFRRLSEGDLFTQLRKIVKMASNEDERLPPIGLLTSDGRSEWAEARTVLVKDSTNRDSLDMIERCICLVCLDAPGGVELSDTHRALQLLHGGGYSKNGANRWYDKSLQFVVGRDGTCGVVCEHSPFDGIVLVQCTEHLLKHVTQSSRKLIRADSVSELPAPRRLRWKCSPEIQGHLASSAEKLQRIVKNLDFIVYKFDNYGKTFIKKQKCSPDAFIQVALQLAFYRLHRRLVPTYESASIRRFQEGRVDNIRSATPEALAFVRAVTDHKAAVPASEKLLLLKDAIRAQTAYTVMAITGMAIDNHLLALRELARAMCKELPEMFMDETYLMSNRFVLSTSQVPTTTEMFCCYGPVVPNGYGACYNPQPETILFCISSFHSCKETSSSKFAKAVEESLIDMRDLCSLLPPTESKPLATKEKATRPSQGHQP
Procedure: ChAT activity was measured using our newly developed fluorometric assay, using human recombinant ChAT (rChAT) protein. The reagents, choline chloride, acetyl coenzyme-A (ACoA, A2181) and 7-Diethylamino-3-(4-maleimidophenyl)-4-methylcoumarin (CPM) were purchased from Sigma-Aldrich (St. Louis, MO, USA).
The ChAT assay could be run in either 96-well or 384-well plates. For 96-well plates, 50 μL/well of 0.212 µg/ml (final concentration) of the recombinant ChAT was incubated with 100 μM different Asinex compounds (50 μL/well) for 10–30 minutes at room temperature in dilution buffer (10 mM Tris-HCl, pH 7.4, 150 mM NaCl, 1.0 mM EDTA, 0.05% (v/v) Triton X-100). Then, 50 µL of a cocktail-A [dilution buffer containing choline chloride (final concentration 150 µM), ACoA (final concentration 13.3 µM) and CPM (final concentration 15 µM)] was added to each well. Immediately after adding the cocktail-A, the changes in fluorescence was monitored kinetically at 479 nm after exciting at 390 nm at 1–2 minute intervals for 15–20 minutes using a microplate spectrophotometer reader (Infinite M1000, Tecan).
Each Asinex compounds were run in triplicates. On each 96-wells plate, several enzyme wells without inhibitor were also included during measurements as control and for estimating the inhibition level. Negative controls were wells without enzyme. The percentage inhibition for each Asinex compound was calculated based on the enzyme control value as a reference (100% activity). The compounds showing over 50% inhibition of enzyme activity were selected for further kinetic studies.
as §2
The Michaelis-Menten constant (Km) and maximal velocity (Vmax) values were calculated from substrate-velocity curve after fitting the data with non-linear regression Michaelis-Menten kinetic function. The Km and Vmax values were further used to plot the Lineweaver-Burk plots; the plots were fitted using linear regression function.

[5] = biological target: T3, human rChAT; assay: as above; type: biochemical; settings: mean ± SEM of two experiments
[6] = system: ChAT; design: method as in PMID 27507101; settings: as previously reported by our group ref 26; cited from earlier work
[7] = 200 µM compound, compared to control, mean of three experiments in triplicate
[8] = substrate BTC 1 mM, mean of two experiments
[9] = 100 µM compound, compared to control, mean of three experiments in triplicate
[10] = 200 µM compound, compared to control, mean of three experiments in triplicate, 200 µM
[11] = Lineweaver-Burk plot and nonlinear regression fit

Row | Compound | inhibition at 200 µM [1, 7] | % of cell proliferation ([2]; 10 µM) | % of cell proliferation ([2]; 50 µM) | inhibition at 200 µM [3, 7] | Ki ([3]; mean of two experiments) | IC50 [3, 8] | inhibition at 100 µM [4, 9] | Ki [1] | IC50 [1] | also measured
1 | O=C(NC1CCCC1)c1ccc(CN2CCN(Cc3ccccc3)CC2)cc1 [Compound A2] | 0% | 62.1 ± 4.0% | 72.2 ± 13.1% | > 50% | 84.9 µM | 527 µM | 6.9% | – | – | –
2 | CCc1ccc2[nH]c3nc(SCCC(=O)N4CCCCCC4)nnc3c2c1 [Compound B1] | 9% | – | – | 15% | – | – | – | – | – | Vmax of rChAT ([5]; inhibitor 2.0 µM): 189.6 ± 17.3 µM/min; Vmax of rChAT ([5]; inhibitor 10.0 µM): 154.3 ± 13.4 µM/min; Vmax of rChAT ([5]; inhibitor 50.0 µM): 73.5 ± 9.7 µM/min; Vmax of rChAT ([5]; inhibitor 250.0 µM): 54.9 ± 6.8 µM/min; AChE % IR (inhibition rate) [1, 10]: 9.1%; BuChE % IR (inhibition rate) [3, 10]: 14.8%; mode of inhibition of human rChAT [4, 11]: mixed-model inhibition; Vmax of rChAT ([4]; inhibitor 0.4 µM, mean ± SEM of two experiments): 247.3 ± 17.8 µM/min; Ki ([4]; mean of two experiments): ~9.4 µM and 9.4 µM; IC50 ([4]; substrate concentrations 20 to 80 µM, mean of two experiments): ~7 µM and 7 µM
3 | CCn1c(CNC(=O)COc2ccccc2F)cc2ccccc21 [Compound C2] | 0% | 87.7 ± 5.0% | 76.2 ± 7.6% | – | 59.6 µM | ~365 µM and 365 µM | 0% | – | – | mode of inhibition of BuChE ([3]; Lineweaver-Burk plot and nonlinear regression analysis): competitive mode of inhibition
4 | CCn1c(CNC(=O)COc2ccc(F)cc2)cc2ccccc21 [Compound C4] | 4.9% | 82.4 ± 4.5% | 84.0 ± 10.0% | > 50% | 59.4 µM | 528 µM | 0% | – | – | –
5 | O=C(NCc1ccc(CN2CCCCC2)cc1)c1nc(-c2ccc(C(F)(F)F)cc2)no1 [Compound C5] | – | 78.9 ± 3.3% | 36.1 ± 2.4% | > 50% | – | – | 0% | 23.7 µM | ~6.3 µM and 6.3 µM | mode of inhibition of AChE [1, 11]: non-competitive mode of inhibition; BuChE IC50 [3, 8]: could not be calculated due to lack of complete inhibition even at the highest tested concentration of 300 µM
6 | CCN(CC)C(=O)c1cccc(Nc2ccc(-c3ccccc3OC)nn2)c1 [Compound D3] | > 50% | 79.2 ± 2.5% | 66.2 ± 4.0% | 20.7% | – | – | 0% | 177 µM | 251 µM | –
7 | COc1cc(CN2CCN(Cc3ccccc3Cl)CC2)c([N+](=O)[O-])cc1OC [Compound D4] | – | 84.0 ± 3.8% | 68.1 ± 1.4% | 18.2% | – | – | 3.5% | 141 µM | 146 µM | –
8 | C[N+](C)(C)CCC(=O)c1cccc2ccccc12.[I-] [α-NETA, 2-(alpha-naphthoyl)ethyltrimethylammonium iodide, reference compound] | – | – | – | – | – | – | 93% | – | – | IC50 [6]: 100 nM; ChAT % IR (inhibition rate) ([4]; 100 µM compound, compared to control, mean of three experiments in triplicate, 100 µM): 93.7%
